Measured values as given in patent publication US20240417428A1, “POLYPEPTIDE FOR INHIBITING TRPM8 AND USE THEREOF” (ZHEJIANG UNIVERSITY, priority 2021, published 2024).
Where a SMILES comes first, the peptide text is derived from it.

Assays:
Format in all cases: cell-based
TRPM8 = TRPM8 (Mus musculus, UniProt Q8R4D5); assay: Whole-cell electrophysiological recording, menthol-activated TRPM8 in transfected HEK293T cells; set-up: expressed in transfected cells; host or cells: HEK293T; conditions: whole-cell recording, menthol activation of TRPM8; read-out: half-inhibitory concentration (IC50) inhibiting TRPM8
Method: (§1) HEK293T cells were cultured in Dulbecco's modified Eagle culture medium under a 37° C., 5% CO2 environment, 10% fetal bovine serum, penicillin (100 U/mL), and streptomycin ([…]) was needed to add into the culture medium. Transient transfection was conducted by using Lipo 2000 (Invitrogen) transfection kit and following the instruction manual.
(§2) Electrophysiological experiment recordings were performed on the cells within 24˜48 h of transient transfections. Specifically, single channel electrophysiological recordings were performed within 8 h after transfection.
(§3) Measurement of the cell currents was respectively performed in the whole-cell recording mode, inside-out recording mode or outside-out recording mode with a HEKA EPC10 amplifier. In the whole cell electrophysiological recordings, glass microelectrodes made of borosilicate material were fire-polished to a original electrode resistance of about 3-6 MΩ. Serial resistance was compensated by 60%. The whole cell electrophysiological recordings were performed at ±80 mV. For single channel electrophysiological recordings, glass microelectrodes were fire-polished to a higher resistance of 6-8 MΩ2. Current signal was sampled at 10 kHz and filtered at 2.9 kHz. Membrane potential of the cell membrane would be clamped at +80 mV. All electrophysiological recordings were performed at room temperature (22° C.) (the maximum variation is 1° C.). […]

TRPA1 = molecular target: T1, TRPA1 (Homo sapiens, UniProt O75762); assay: Electrophysiological recording of TRPA1
T1 construct: expressed in transfected cells; host or cells: HEK293T
Method: as §1, §2, §3

TRPV2 = molecular target: T2, TRPV2 (Homo sapiens, UniProt Q9Y5S1); assay: Electrophysiological recording, ligand activation of TRPV2; conditions: IC 50 TRPV2
T2 construct: expressed in transfected cells; host or cells: HEK293T
T2 sequence (Q9Y5S1 1-764): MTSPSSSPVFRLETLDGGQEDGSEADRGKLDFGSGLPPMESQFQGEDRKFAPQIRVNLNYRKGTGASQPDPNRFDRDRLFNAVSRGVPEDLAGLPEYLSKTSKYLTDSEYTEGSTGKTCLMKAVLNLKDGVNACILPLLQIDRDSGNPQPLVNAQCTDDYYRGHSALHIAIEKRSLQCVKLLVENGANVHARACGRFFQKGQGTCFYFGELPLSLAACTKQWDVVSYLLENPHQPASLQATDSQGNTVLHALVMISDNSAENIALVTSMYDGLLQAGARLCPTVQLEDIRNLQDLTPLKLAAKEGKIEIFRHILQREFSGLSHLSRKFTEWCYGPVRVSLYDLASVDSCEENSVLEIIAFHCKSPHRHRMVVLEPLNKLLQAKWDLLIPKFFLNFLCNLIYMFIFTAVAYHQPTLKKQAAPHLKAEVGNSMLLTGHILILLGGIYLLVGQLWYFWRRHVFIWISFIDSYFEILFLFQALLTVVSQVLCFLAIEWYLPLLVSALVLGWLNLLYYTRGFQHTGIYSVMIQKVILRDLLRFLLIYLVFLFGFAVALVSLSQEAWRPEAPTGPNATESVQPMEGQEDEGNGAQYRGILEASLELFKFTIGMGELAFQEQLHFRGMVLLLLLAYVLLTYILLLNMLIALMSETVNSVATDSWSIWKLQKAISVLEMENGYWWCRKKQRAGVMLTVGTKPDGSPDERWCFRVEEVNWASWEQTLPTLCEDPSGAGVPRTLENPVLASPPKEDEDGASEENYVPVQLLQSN
Method: as §1, §2, §3

T1 sequence (O75762 whole entry, species assumed): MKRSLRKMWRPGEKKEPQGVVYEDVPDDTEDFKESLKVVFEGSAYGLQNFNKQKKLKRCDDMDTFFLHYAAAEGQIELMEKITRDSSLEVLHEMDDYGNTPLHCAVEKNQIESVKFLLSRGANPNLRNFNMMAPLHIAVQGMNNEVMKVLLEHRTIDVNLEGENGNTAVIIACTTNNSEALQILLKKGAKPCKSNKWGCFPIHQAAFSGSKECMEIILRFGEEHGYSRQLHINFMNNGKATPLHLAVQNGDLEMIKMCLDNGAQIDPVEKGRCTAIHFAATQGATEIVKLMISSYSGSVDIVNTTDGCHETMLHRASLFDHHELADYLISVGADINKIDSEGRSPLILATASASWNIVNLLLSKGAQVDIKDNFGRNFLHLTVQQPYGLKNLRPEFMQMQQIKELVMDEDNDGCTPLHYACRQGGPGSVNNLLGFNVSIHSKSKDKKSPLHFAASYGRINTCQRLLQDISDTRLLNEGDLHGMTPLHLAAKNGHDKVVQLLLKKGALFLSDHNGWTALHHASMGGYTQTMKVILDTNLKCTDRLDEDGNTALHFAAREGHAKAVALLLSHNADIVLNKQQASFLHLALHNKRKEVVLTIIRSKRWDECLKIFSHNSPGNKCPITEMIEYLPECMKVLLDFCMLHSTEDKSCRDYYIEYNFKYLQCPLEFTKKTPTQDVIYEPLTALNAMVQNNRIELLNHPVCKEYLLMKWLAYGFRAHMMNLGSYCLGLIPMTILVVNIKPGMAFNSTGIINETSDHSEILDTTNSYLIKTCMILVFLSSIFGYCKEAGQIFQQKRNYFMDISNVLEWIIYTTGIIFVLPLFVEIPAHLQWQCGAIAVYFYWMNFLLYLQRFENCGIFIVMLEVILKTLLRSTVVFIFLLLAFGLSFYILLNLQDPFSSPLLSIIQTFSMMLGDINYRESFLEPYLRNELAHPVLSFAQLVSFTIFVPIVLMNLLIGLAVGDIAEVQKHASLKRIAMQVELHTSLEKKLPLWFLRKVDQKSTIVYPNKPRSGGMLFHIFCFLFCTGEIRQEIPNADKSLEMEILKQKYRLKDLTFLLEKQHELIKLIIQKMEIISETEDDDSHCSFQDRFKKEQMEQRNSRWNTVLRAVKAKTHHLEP
TRPM8, sequence (Q8R4D5 whole entry): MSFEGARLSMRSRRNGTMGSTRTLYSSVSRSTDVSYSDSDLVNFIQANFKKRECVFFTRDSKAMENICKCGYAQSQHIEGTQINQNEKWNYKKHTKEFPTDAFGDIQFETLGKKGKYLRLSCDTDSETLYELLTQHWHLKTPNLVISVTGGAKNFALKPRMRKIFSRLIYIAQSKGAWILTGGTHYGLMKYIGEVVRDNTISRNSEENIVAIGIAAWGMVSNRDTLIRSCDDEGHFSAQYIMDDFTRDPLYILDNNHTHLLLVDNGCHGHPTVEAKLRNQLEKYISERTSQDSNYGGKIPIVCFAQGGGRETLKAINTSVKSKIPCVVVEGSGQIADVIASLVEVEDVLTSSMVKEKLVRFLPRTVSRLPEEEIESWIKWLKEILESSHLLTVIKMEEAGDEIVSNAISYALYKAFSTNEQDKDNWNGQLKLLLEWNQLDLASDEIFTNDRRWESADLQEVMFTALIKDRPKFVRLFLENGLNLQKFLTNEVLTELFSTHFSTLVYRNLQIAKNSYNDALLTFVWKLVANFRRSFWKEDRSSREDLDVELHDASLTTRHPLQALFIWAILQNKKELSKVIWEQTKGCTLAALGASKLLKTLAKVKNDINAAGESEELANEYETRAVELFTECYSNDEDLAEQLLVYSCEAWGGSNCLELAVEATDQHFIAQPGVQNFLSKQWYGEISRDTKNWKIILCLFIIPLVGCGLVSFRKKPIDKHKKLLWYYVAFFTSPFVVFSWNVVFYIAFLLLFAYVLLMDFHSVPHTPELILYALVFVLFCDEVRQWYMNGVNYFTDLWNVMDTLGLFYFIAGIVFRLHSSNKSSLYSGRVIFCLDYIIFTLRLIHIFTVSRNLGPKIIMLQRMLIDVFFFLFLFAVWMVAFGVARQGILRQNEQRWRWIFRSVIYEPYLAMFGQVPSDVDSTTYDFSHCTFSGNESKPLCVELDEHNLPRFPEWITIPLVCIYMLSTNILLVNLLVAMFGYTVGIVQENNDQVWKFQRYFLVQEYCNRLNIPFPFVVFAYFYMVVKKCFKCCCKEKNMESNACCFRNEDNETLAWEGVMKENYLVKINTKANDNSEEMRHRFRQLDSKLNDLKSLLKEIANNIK

C[C@@H]1NC(=O)[C@H](CCCNC(=N)N)NC(=O)[C@H](CC(=O)O)NC(=O)[C@H](CCCNC(=N)N)NC(=O)[C@H](CCCNC(=N)N)NC(=O)[C@@H](N)CSSC[C@@H](C(=O)O)NC(=O)[C@H](CCCNC(=N)N)NC(=O)[C@H](CCC(N)=O)NC(=O)[C@H](CCCNC(=N)N)NC(=O)[C@H](Cc2ccc(O)cc2)NC(=O)[C@H](Cc2c[nH]cn2)NC(=O)[C@H](CCCNC(=N)N)NC1=O [DeC-1.2, CRRDRARHYRQRC] (HELM PEPTIDE1{C.R.R.D.R.A.R.H.Y.R.Q.R.C}$PEPTIDE1,PEPTIDE1,1:R3-13:R3$$$V2.0; N-terminus and C-terminus assumed)
IC50 (TRPM8): 4.5 ± 3 nM | IC50 (TRPA1): > 100 µM | inhibition of TRPA1 (TRPA1): none of the TRP channels and Nav channels were inhibited | IC50 (TRPV2): > 5 µM
